According to PubChem BioAssay AID1361 (SRMLSC, 2008):
Calls of active or inactive are those of the source. The rule behind the calls is not given here.

Experiment: mitochondrial fusion inhibitors, confirmation, cell-based, chemical genetic, wild-type and mutant (AID 1361)
Conditions: Cell-based mitochondrial fusion phenotype, imaging
[1] = mutant cells, measured here: mutant cell line IC50

Row | SMILES | IC50 (WT cells) | IC50 [1]
1 | Cc1ccccc1N1CCN(c2ncnc3scc(-c4cccs4)c23)CC1 | 9.75 µM | > 12.5 µM
2 | Cc1cccc(N2CCN(C(c3ccccc3)c3nnnn3C(C)(C)C)CC2)c1C (configuration not stated) | 9.14 µM | > 25 µM
3 | C1CCN=C(Nc2nc3c(s2)CCCC3)CC1 | > 25 µM (inactive) | > 25 µM
4 | CCOC(=O)C1=C(C)N=C2SCCC(=O)N2C1c1sccc1C (configuration not stated) | > 25 µM (inactive) | > 25 µM
5 | O=C(COC(=O)C1(c2ccc(Cl)cc2)CCCC1)Nc1ncc(C(F)(F)F)cc1Cl | 18.2 µM | > 25 µM
6 | Cc1cccc(C(=O)NC(C(=O)Nc2nc(-c3ccccn3)cs2)C(C)C)c1 (configuration not stated) | 20.8 µM | > 25 µM
7 | Fc1ccc(C(CCCn2nnc(-c3cccnc3)n2)c2ccc(F)cc2)cc1 | 21.9 µM | > 25 µM
8 | Cc1cc(C)n(CC(O)Cn2c3ccc(Cl)cc3c3cc(Cl)ccc32)c(=O)n1 (configuration not stated) | 16.6 µM | > 25 µM
9 | O=[N+]([O-])c1cc(C(F)(F)F)ccc1NCCc1c[nH]c2ccccc12 | 13.4 µM | 18.9 µM
10 | CCOc1ccc(NS(=O)(=O)c2ccc(NC(=S)NC(=O)CC(C)C)cc2)cc1 | 14.3 µM | > 25 µM
11 | COC(=O)c1cn(C(=O)OC)c2ccccc12 | > 25 µM (inactive) | > 25 µM
12 | CCCOC(=O)CN1C(=O)c2ccccc2C1=O | > 25 µM (inactive) | > 25 µM
13 | O=c1c2ccccc2n(Cc2ccc(F)cc2)c(=O)n1C1CCCC1 | 17 µM | > 25 µM
14 | Cc1ccc(C)c(NC(=O)c2ccccc2C(=O)c2ccccc2)c1 | 18.2 µM | > 25 µM
15 | Clc1ccccc1Cn1c(/C=C/c2ccco2)nc2ccccc21 | 11.6 µM | 25 µM
16 | Cc1nn(C(C)(C)C)c(OC(=O)c2ccc3c(c2)OCO3)c1Sc1ccccc1 | 8.28 µM | > 25 µM
17 | COc1cc2c(cc1NC(=O)CSc1nc3ccccc3[nH]1)oc1ccccc12 | 11.2 µM | > 25 µM
18 | COc1cccc(C2CN(c3ccc(F)cc3F)N=C2c2cccs2)c1OC (configuration not stated) | 10 µM | > 25 µM
19 | N#Cc1sc2nc(C3CC3)cc(-c3ccc(Cl)cc3)c2c1N | 11.7 µM | 19.5 µM
20 | CCc1ccc(-c2nn(-c3ccccc3)cc2CSC(=N)N)cc1 | > 25 µM (inactive) | > 25 µM
21 | Cc1ccccc1Nc1scc(-c2ccc(Cl)cc2)[n+]1-c1ccccc1C | 8.24 µM | > 25 µM

Row | SMILES | IC50 (WT cells) | IC50 [1]
22 | O=C(NCc1ccccn1)C(=O)Nc1nc(C23CC4CC(CC(C4)C2)C3)cs1 | 15 µM | > 25 µM
23 | O=C(Nc1ccc(C(O)(C(F)(F)F)C(F)(F)F)cc1)c1ccc(Cl)c([N+](=O)[O-])c1 | 18.8 µM | > 25 µM
24 | CCS(=O)(=O)Nc1ccc(-c2cc(-c3ccccc3)c3cc(C)ccc3n2)cc1 | 7.26 µM | > 25 µM
25 | CCOC(=O)c1sc(NC(=O)Nc2cccc(Cl)c2)cc1C | 11.8 µM | > 25 µM
26 | Cc1ccc(C2=CC(C)(c3ccc(C)cc3)Nc3nc(C(F)(F)F)nn32)cc1 (configuration not stated) | 7.63 µM | > 25 µM
27 | S=c1[nH]nc(-c2cc3ccccc3o2)n1Cc1ccccc1 | 12.5 µM | 23.1 µM
28 | Cc1ccc(/C=N/NC(=O)COc2ccccc2-c2ccccc2)cc1 | 14.9 µM | > 25 µM
29 | O=c1cc(N2CCCCC2)c(-c2ccccc2)nn1Cc1ccc(F)cc1 | 17.4 µM | > 25 µM
30 | Cc1ccc(Cl)cc1N1CCN(C(=O)c2cccc3c(=O)c(C)c(-c4ccccc4)oc23)CC1 | 9.75 µM | > 25 µM
31 | O=C(COC(=O)c1ccccc1Cc1ccccc1)Nc1ccc(SC(F)F)cc1 | 5.92 µM | > 25 µM
32 | CCN(CC)CCNC(=O)Cn1c(-c2ccccn2)nc2ccccc21 |  | > 25 µM
33 | CC(C)(C)n1nnnc1C(c1cccs1)N1CCCC2(CCCCC2)C1 (configuration not stated) | 4.86 µM | > 25 µM
34 | O=C(NC1CCS(=O)(=O)C1)c1ccc(-c2ccc(Br)cc2)o1 (configuration not stated) | > 25 µM (inactive) | > 25 µM
35 | CCCCN1C(=O)NC(=O)C2(Cc3c(nc4c(C)cccn4c3=O)N3CCc4ccccc4C32)C1=O (configuration not stated) | 11.9 µM | > 25 µM
36 | O=C(N/N=C/c1c(Cl)cccc1Cl)c1n[nH]c2c1CCCC2 | > 25 µM (inactive) | > 25 µM
37 | CCC(C)n1c(SCc2ccccc2)nc2ccsc2c1=O (configuration not stated) | 22.9 µM | > 25 µM
38 | COc1ccc(NC(=O)CN(c2ccc(C)cc2)S(C)(=O)=O)c(OC)c1 | > 25 µM (inactive) | > 25 µM
39 | O=C(Nc1nnc(C2CC2)s1)c1cc(-c2ccccc2)nn1-c1ccccc1 | 8.41 µM | 17 µM
40 | COc1ccc(CC(=O)N2CCOCC2)cc1OC | > 25 µM (inactive) | > 25 µM
41 | N#Cc1sc2nc(N3CCCCC3)c3c(c2c1N)CCCC3 | 20.2 µM | > 25 µM
42 | O=C(CNC(=S)N(Cc1ccccc1)Cc1ccccc1F)NCc1ccc(Cl)cc1 | 5.67 µM | > 25 µM

Row | SMILES | IC50 (WT cells) | IC50 [1]
43 | CCn1cc(C(=O)NCCc2ccccc2)c(=O)c2cc(F)c(N3CCN(C)CC3)cc21 | > 25 µM (inactive) | > 25 µM
44 | CCS(=O)(=O)Nc1cccc(-c2cc(-c3ccccc3)c3cc(C)ccc3n2)c1 | 6.46 µM | > 25 µM
45 | Cc1ccccc1/C(N)=N/OC(=O)N1c2ccccc2Sc2ccccc21 | 16.6 µM | 22 µM
46 | COC(=O)C1=C(Nc2ccc(C)cc2)C=C(C)C(C(=O)OC)C1c1ccc(F)cc1 (configuration not stated) | 6.62 µM | > 25 µM
47 | CCc1ccc(CCC(=O)Nc2ccccc2C(=O)O)o1 | > 25 µM (inactive) | > 25 µM
48 | Cc1ccc(N(CC(O)Cn2c3ccccc3c3ccccc32)S(C)(=O)=O)c(C)c1 (configuration not stated) | 18.8 µM | > 25 µM
49 | C=CCC(C(=O)OC)(C(=O)OC)c1ccc([N+](=O)[O-])cn1 | > 25 µM (inactive) | > 25 µM
50 | S=C1NC(C23CC4CC(CC(C4)C2)C3)=CC(c2ccc3c(c2)OCO3)N1 (configuration not stated) | 4.6 µM | > 25 µM
51 | CCc1cccc(CC)c1NC(=S)NCCc1c(C)[nH]c2ccccc12 | 19.8 µM | > 25 µM
52 | O=C(NCC1(c2ccccc2)CCCC1)C1(c2ccccc2)CCCC1 | 16.8 µM | > 25 µM
53 | COC(=O)c1c(NC(=O)CN2CCC3(O)CCCCC3C2c2cc(OC)ccc2OC)sc(C)c1C (configuration not stated) | 8.13 µM | > 25 µM
54 | COc1ccc(-c2cc3nc(C)cc(N4CC(C)CC(C)C4)n3n2)cc1 (configuration not stated) | 17.8 µM | 19.4 µM
55 | O=C(NCc1ccco1)c1cc(-c2ccccc2)on1 | > 25 µM (inactive) | > 25 µM
56 | CCN(CC)c1ccc(/C=N/NC(=S)NCc2ccco2)cc1 | 11.6 µM | > 25 µM
57 | O=C(c1ccco1)N1CCN(c2c(-c3ccccc3)c3cc(Cl)ccc3[nH]c2=O)CC1 | 13.2 µM | > 25 µM
58 | COc1ccc(OC)c(-c2cc(C3CCN(c4cc(Cl)nc(N)n4)CC3)[nH]n2)c1 | > 25 µM (inactive) | > 25 µM
59 | CCCCSc1nnc(-c2ccc(C)cc2)c2ccccc12 | 9.57 µM | 23.1 µM
60 | CCOC(=O)c1cnc(-c2ccccc2)nc1-c1ccccc1 | > 25 µM (inactive) | > 25 µM
61 | CC(C)C(=O)N1CCC(CN=Cc2c(O)n(C3CCCCC3)c(=O)n(C3CCCCC3)c2=O)CC1 | 23 µM | > 25 µM
62 | CCOC(=O)C1=C(C)NC(C)=C(C(=O)OC)C1c1cccc(Cl)c1Cl (configuration not stated) | 20.4 µM | > 25 µM
63 | CC(=O)Nc1cccc(Oc2ncnc3scc(-c4ccc(C(C)C)cc4)c23)c1 | 14.5 µM | > 25 µM

Row | SMILES | IC50 (WT cells) | IC50 [1]
64 | CCOC1(OCC)C(c2ccc(Cl)cc2)C(C#N)(C#N)C1(OCC)OCC (configuration not stated) | 11.5 µM | > 25 µM
65 | CSc1nncn1/N=C/c1ccc2c(c1)OCO2 | > 25 µM (inactive) | > 25 µM
66 | CC12CCC3C(CC=C4CC(O)CCC43C)C1C/C(=C\c1ccccc1F)C2=O (configuration not stated) | 9.36 µM | > 25 µM
67 | Cc1cccc(N2CCN(C(=O)COc3ccc4c(c3)CCC4)CC2)c1C | 14.8 µM | > 25 µM
68 | CCCOc1ccc(-c2nc(C#N)c(N3CCC(C(N)=O)CC3)o2)cc1 | > 25 µM (inactive) | > 25 µM
69 | CCCCCCn1c(N2CCN(c3ccccc3)CC2)nc2c1c(=O)n(C)c(=O)n2C | 19.9 µM | > 25 µM
70 | O=C(OCC(=O)N1CCN(C(=O)c2ccco2)CC1)c1cn(-c2ccccc2)nc1-c1ccccc1 | 13.1 µM | 16.3 µM
71 | O=C(CSc1nnnn1-c1ccccc1)NCc1cccs1 | > 25 µM (inactive) | > 25 µM
72 | O=C(COC(=O)c1cc(-c2cccc(Br)c2)nc2ccccc12)NCC1CCCO1 (configuration not stated) | 19.8 µM | > 25 µM
73 | NC(=O)COC(=O)c1ccc(Cl)c(S(=O)(=O)N(Cc2ccccc2)c2ccc(Cl)cc2)c1 | 18.1 µM | > 25 µM
74 | Cc1nc(N2CCCCC2C)c2c(C)c(C(=O)Nc3cccc(C(F)(F)F)c3)sc2n1 (configuration not stated) | 10.6 µM | > 25 µM
75 | O=C(CNC(=S)N(Cc1ccccc1)Cc1cccs1)NCc1ccc(F)cc1 | > 25 µM (inactive) | > 25 µM
76 | COc1ccccc1-n1c(SCC(=O)c2ccc(O)cc2O)nc2cc([N+](=O)[O-])ccc21 | 6.02 µM | > 25 µM
77 | COC(=O)c1c(NC(=O)CN2CCC3(O)CCCCC3C2c2ccc(F)cc2)sc(C)c1C (configuration not stated) | 14.4 µM | > 25 µM
78 | CC(c1ccccc1)N(CCC(c1ccccc1)C1CCOC(C)(C)C1)C(=O)c1ccco1 (configuration not stated) | 19.2 µM | > 25 µM
79 | CCOC(=O)c1oc2cccc(OCC(O)CNC(C)C)c2c1C (configuration not stated) | > 25 µM (inactive) | > 25 µM
80 | CCCCCC[n+]1c(-c2ccccc2)csc1Nc1ccccc1 | 4.95 µM | 14.8 µM
81 | c1ccc2c(c1)nc(CN1CCOCC1)n1c3ccccc3nc21 | > 25 µM (inactive) | > 25 µM
82 | Cc1ccc(-n2c(-c3ccccc3)cc(/C=N/NC(=O)CC#N)c2-c2ccccc2)cc1 | > 25 µM (inactive) | > 25 µM
83 | CCN1C(=O)S/C(=C/c2c(OCc3ccc(C(=O)O)cc3)ccc3ccccc23)C1=O | 18.7 µM | > 25 µM
84 | Clc1ccc2c(c1)C(c1ccccc1Cl)=NCc1nnc(N3CCN(CCSc4ccccc4)CC3)n1-2 | 13.9 µM | > 25 µM
